# Source: patent US8022206B2 (OSI Pharmaceuticals, LLC, priority 2008, dated 2011)
# How the values were obtained:
# [1] = molecular target: RON (human) (Homo sapiens, UniProt Q04912); assay: RON (human) AlphaScreen kinase assay, Km of ATP; format: biochemical; conditions: AlphaScreen, Km of ATP; read-out: RON biochemical IC50
# How it was run: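 Detection used PT66 AlphaScreen beads added in Tris pH 7.5/NaCl/EDTA/BSA buffer, read after 1 h incubation. Vehicle-only DMSO wells served as controls.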
# [2] = molecular target: MET (human) (Homo sapiens, UniProt P08581); assay: MET (human) AlphaScreen kinase assay, Km of ATP; format: biochemical; conditions: AlphaScreen, Km of ATP; read-out: Met biochemical IC50
# How it was run: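 Human MET at lot-optimised concentration in 50 mM Tris pH 7.4 buffer with 1 mM DTT, compound at 1% DMSO final; enzyme starts the reaction, 60 min at RT.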
# Sequence of RON (human) (Q04912 25-1400): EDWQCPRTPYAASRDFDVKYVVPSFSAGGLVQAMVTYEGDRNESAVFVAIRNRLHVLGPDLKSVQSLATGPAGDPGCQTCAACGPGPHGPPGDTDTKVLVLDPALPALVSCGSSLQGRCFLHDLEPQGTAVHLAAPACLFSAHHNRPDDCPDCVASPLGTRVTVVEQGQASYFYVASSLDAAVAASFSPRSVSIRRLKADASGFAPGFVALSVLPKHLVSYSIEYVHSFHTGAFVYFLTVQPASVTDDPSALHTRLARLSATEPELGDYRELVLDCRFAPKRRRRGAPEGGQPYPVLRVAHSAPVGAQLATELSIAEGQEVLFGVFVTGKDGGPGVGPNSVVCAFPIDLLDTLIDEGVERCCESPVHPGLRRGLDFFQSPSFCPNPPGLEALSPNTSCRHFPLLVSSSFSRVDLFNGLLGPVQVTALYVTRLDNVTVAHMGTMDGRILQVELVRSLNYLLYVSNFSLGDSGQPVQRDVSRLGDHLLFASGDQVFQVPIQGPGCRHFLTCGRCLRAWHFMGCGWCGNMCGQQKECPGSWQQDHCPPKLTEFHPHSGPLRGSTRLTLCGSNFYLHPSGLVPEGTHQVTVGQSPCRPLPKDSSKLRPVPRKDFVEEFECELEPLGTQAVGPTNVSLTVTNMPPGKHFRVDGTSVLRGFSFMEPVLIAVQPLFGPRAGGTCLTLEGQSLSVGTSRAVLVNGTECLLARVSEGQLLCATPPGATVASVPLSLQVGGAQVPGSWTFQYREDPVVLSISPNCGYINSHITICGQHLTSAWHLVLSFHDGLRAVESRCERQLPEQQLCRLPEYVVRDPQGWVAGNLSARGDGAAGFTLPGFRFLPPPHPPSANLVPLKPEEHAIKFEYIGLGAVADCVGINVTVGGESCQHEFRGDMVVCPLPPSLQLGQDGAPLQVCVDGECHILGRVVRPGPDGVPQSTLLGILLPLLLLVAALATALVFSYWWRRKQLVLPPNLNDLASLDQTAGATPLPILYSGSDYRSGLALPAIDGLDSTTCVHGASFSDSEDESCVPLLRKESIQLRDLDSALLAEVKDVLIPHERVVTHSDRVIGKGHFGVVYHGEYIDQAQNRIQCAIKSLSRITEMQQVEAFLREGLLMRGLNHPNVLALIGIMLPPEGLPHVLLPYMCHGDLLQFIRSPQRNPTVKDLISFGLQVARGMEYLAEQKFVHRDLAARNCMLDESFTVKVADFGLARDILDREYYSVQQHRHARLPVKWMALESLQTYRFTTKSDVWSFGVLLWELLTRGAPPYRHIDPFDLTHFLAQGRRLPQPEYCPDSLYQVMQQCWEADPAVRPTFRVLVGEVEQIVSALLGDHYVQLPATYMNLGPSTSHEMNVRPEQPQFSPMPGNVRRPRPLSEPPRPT
# Sequence of MET (human) (P08581 25-1390): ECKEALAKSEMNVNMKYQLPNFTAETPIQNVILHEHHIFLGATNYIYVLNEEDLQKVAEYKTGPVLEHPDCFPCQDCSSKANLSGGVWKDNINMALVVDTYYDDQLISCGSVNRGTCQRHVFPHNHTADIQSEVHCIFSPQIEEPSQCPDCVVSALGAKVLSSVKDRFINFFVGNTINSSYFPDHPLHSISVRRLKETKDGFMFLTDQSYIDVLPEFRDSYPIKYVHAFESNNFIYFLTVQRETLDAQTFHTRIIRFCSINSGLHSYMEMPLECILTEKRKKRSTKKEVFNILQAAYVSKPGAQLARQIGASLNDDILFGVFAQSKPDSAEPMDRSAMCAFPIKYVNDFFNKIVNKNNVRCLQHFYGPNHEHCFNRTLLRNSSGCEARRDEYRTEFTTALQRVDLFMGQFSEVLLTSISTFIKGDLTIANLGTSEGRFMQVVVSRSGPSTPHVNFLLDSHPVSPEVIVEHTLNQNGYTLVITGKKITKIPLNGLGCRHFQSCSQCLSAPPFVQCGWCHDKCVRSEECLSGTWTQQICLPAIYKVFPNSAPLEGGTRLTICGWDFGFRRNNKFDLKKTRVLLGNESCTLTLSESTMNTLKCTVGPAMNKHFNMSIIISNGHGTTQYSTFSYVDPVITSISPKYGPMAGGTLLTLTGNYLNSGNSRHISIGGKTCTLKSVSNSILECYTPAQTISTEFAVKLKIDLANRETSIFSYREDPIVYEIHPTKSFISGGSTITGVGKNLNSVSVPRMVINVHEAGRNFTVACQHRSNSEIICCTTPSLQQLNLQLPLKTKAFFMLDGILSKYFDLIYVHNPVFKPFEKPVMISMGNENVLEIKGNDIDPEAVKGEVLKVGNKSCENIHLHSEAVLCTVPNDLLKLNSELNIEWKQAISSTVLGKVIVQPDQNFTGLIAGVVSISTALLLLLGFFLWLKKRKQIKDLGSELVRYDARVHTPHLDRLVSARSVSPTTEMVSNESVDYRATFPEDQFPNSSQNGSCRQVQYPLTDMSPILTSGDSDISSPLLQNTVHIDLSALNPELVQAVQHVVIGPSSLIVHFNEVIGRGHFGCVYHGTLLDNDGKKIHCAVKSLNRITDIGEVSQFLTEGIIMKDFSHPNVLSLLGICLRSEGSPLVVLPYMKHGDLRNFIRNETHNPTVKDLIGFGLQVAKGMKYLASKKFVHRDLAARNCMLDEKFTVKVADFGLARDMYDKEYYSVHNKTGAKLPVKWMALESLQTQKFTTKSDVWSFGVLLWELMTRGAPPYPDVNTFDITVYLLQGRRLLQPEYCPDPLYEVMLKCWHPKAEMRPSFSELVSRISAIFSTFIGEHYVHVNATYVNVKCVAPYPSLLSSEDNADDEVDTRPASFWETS
IC50 [1] [µM],IC50 [2] [µM],SMILES
0.5 to 5,0.5 to 5,"C[C@@H](Oc1c(N)ncc2c(-c3ccc(C(=O)NCCN4CCOCC4)cc3)coc12)c1c(Cl)ccc(F)c1Cl [Example 100, 4-{6-Amino-7-[(R)-1-(2,6-dichloro-3-fluorophenyl)ethoxy]-furo[3,2-c]pyridin-3-yl}-N-(2-morpholin-4-ylethyl)benzamide]"
5 to 20,0.5 to 5,"C[C@@H](Oc1c(N)ncc2c(-c3ccc(C#N)nc3)coc12)c1c(Cl)ccc(F)c1Cl [Example 125, 5-{6-Amino-7-[(R)-1-(2,6-dichloro-3-fluorophenyl)-ethoxy]furo[3,2-c]pyridin-3-yl}pyridine-2-carbonitrile]"
0.5 to 5,< 0.5,"CC(Cc1ccccc1F)Oc1c(N)ncc2c(-c3cnn(C4CCNCC4)c3)coc12 (stereo not drawn) [Example 423, 7-[2-(2-Fluorophenyl)-1-methylethoxy]-3-(1-piperidin-4-yl-1H-pyrazol-4-yl)furo[3,2-c]pyridin-6-ylamine]"
< 0.5,< 0.5,"C[C@@H](Oc1c(N)ncc2c(-c3ccc(CN4CCN(C)CC4)s3)coc12)c1c(Cl)ccc(F)c1Cl [Example 218, 7-[(R)-1-(2,6-Dichloro-3-fluorophenyl)ethoxy]-3-[5-(4-methylpiperazin-1-ylmethyl)-thiophen-2-yl]furo[3,2-c]pyridin-6-ylamine]"
0.5 to 5,< 0.5,"CC(Cc1c(Cl)cccc1Br)Oc1c(N)ncc2c(-c3cnn(C4CCNCC4)c3)coc12 (stereo not drawn) [Example 371, 7-[2-(2-Bromo-6-chlorophenyl)-1-methylethoxy]-3-(1-piperidin-4-yl-1H-pyrazol-4-yl)furo[3,2-c]pyridin-6-ylamine]"
0.5 to 5,< 0.5,"C[C@H](O)C(=O)N1CC=C(c2coc3c(O[C@H](C)c4c(Cl)ccc(F)c4Cl)c(N)ncc23)CC1 [Example 227, (S)-1-(4-{6-Amino-7-[(R)-1-(2,6-dichloro-3-fluorophenyl)ethoxy]-furo[3,2-c]pyridin-3-yl}-3,6-dihydro-2H-pyridin-1-yl)-2-hydroxypropan-1-one]"
< 0.5,0.5 to 5,"C[C@@H](Oc1c(N)ncc2c(C3=CCN(C(=O)[C@@H](O)c4ccccc4)CC3)coc12)c1c(Cl)ccc(F)c1Cl [Example 265, (2S)-1-[4-{6-Amino-7-[(1R)-1-(2,6-dichloro-3-fluorophenyl)ethoxy]furo[3,2-c]pyridin-3-yl}-3,6-dihydropyridin-1(2H)-yl]-2-hydroxy-2-phenylethanone]"
< 0.5,< 0.5,"C[C@@H](Oc1c(N)ncc2c(C3=CCN(C(=O)[C@@H]4CCCN4)CC3)coc12)c1c(Cl)ccc(F)c1Cl [Example 22, (4-{6-Amino-7-[(R)-1-(2,6-dichloro-3-fluorophenyl)ethoxy]furo[3,2-c]pyridin-3-yl}-3,6-dihydro-2H-pyridin-1-yl)-(S)-pyrrolidin-2-ylmethanone]"
0.5 to 5,0.5 to 5,"C[C@@H](Oc1c(N)ncc2c(C(=O)NCC3CCOCC3)coc12)c1c(Cl)ccc(F)c1Cl [Example 187, 6-Amino-7-[(R)-1-(2,6-dichloro-3-fluorophenyl)ethoxy]furo[3,2-c]pyridine-3-carboxylic acid (tetrahydropyran-4-ylmethyl)amide]"
< 0.5,< 0.5,"C[C@@H](Oc1c(N)ncc2c(C3=CCN(C(=O)[C@@H]4C[C@@H](F)CN4)CC3)coc12)c1c(Cl)ccc(F)c1Cl [Example 235, (4-{6-Amino-7-[(R)-1-(2,6-dichloro-3-fluorophenyl)ethoxy]-furo[3,2-c]pyridin-3-yl}-3,6-dihydro-2H-pyridin-1-yl)-((2S,4R)-4-fluoropyrrolidin-2-yl)-methanone]"
5 to 20,< 0.5,"C[C@@H](Oc1c(N)ncc2c(C3=CCN(C(=O)[C@H](N)Cc4cnc[nH]4)CC3)coc12)c1c(Cl)ccc(F)c1Cl [Example 264, (2R)-2-Amino-1-[4-{6-amino-7-[(1R)-1-(2,6-dichloro-3-fluoro-phenyl)ethoxy]furo[3,2-c]pyridin-3-yl}-3,6-dihydropyridin-1(2H)-yl]-3-(1H-imidazol-5-yl)propan-1-one]"
5 to 20,0.5 to 5,"COc1ncc(-c2coc3c(O[C@H](C)c4c(Cl)ccc(F)c4Cl)c(N)ncc23)cn1 [Example 93, 7-[(R)-1-(2,6-Dichloro-3-fluorophenyl)ethoxy]-3-(2-methoxypyrimidin-5-yl)furo[3,2-c]pyridin-6-ylamine]"
0.5 to 5,0.5 to 5,"C[C@@H](Oc1c(N)ncc2c(C3=CCN(C(=O)c4ccc[nH]4)CC3)coc12)c1c(Cl)ccc(F)c1Cl [Example 234, (4-{6-Amino-7-[(R)-1-(2,6-dichloro-3-fluorophenyl)ethoxy]-furo[3,2-c]pyridin-3-yl}-3,6-dihydro-2H-pyridin-1-yl)-(1H-pyrrol-2-yl)-methanone]"
0.5 to 5,< 0.5,"CC(/C=C/c1c(Cl)ccc(F)c1Cl)Oc1c(N)ncc2c(-c3cnn(C4CCNCC4)c3)coc12 (stereo not drawn) [Example 373, 7-[(E)-3-(2,6-Dichloro-3-fluorophenyl)-1-methylallyloxy]-3-(1-piperidin-4-yl-1H-pyrazol-4-yl)furo[3,2-c]pyridin-6-ylamine]"
< 0.5,< 0.5,"C[C@@H](Oc1c(N)ncc2c(C3=CCN(C(=O)C(C)(C)N)CC3)coc12)c1c(Cl)ccc(F)c1Cl [Example 24, 2-Amino-1-(4-{6-amino-7-[(R)-1-(2,6-dichloro-3-fluorophenyl)-ethoxy]-furo[3,2-c]pyridin-3-yl}-3,6-dihydro-2H-pyridin-1-yl)-2-methylpropan-1-one]"
0.5 to 5,0.5 to 5,"C[C@@H](Oc1c(N)ncc2c(C3=CCN(C(=O)C(F)(F)F)CC3)coc12)c1c(Cl)ccc(F)c1Cl [Example 56, 1-(4-{6-Amino-7-[(R)-1-(2,6-dichloro-3-fluorophenyl)-ethoxy]-furo[3,2-c]pyridin-3-yl}-3,6-dihydro-2H-pyridin-1-yl)-2,2,2-trifluoroethanone]"
0.5 to 5,< 0.5,"Cc1c(F)cccc1C(C)Oc1c(N)ncc2c(-c3cnn(C4CCNCC4)c3)coc12 (stereo not drawn) [Example 380, 7-[1-(3-Fluoro-2-methylphenyl)ethoxy]-3-(1-piperidin-4-yl-1H-pyrazol-4-yl)furo[3,2-c]pyridin-6-ylamine]"
0.5 to 5,0.5 to 5,"Nc1ncc2c(-c3cnn(C4CCNCC4)c3)coc2c1OC(CCc1ccccc1)c1c(Cl)ccc(F)c1Cl (stereo not drawn) [Example 368, 7-[1-(2,6-Dichloro-3-fluorophenyl)-3-phenylpropoxy]-3-(1-piperidin-4-yl-1H-pyrazol-4-yl)furo[3,2-c]pyridin-6-ylamine]"
0.5 to 5,0.5 to 5,"COCCCNC(=O)c1ccc(-c2coc3c(O[C@H](C)c4c(Cl)ccc(F)c4Cl)c(N)ncc23)cc1 [Example 286, 4-{6-Amino-7-[(R)-1-(2,6-dichloro-3-fluorophenyl)ethoxy]furo[3,2-c]pyridin-3-yl}-N-(3-methoxypropyl)-benzamide]"
< 0.5,< 0.5,"C[C@@H](Oc1c(N)ncc2c(C3=CCN(C(=O)[C@H]4CCCCN4)CC3)coc12)c1c(Cl)ccc(F)c1Cl [Example 239, (4-{6-Amino-7-[(R)-1-(2,6-dichloro-3-fluorophenyl)ethoxy]-furo[3,2-c]pyridin-3-yl}-3,6-dihydro-2H-pyridin-1-yl)-(R)-piperidin-2-ylmethanone]"
0.5 to 5,< 0.5,"C[C@@H](Oc1c(N)ncc2c(-c3cccc(NS(C)(=O)=O)c3)coc12)c1c(Cl)ccc(F)c1Cl [Example 79, N-(3-{6-Amino-7-[(R)-1-(2,6-dichloro-3-fluorophenyl)ethoxy]-furo[3,2-c]pyridin-3-yl}phenyl)methanesulfonamide]"
0.5 to 5,< 0.5,"C[C@@H](Oc1c(N)ncc2c(C3=CCN(CC(=O)N4CCC(O)C4)CC3)coc12)c1c(Cl)ccc(F)c1Cl (stereo partly drawn) [Example 203, 2-(4-{6-Amino-7-[(R)-1-(2,6-dichloro-3-fluorophenyl)ethoxy]-furo[3,2-e]pyridin-3-yl}-3,6-dihydro-2H-pyridin-1-yl)-1-(3-hydroxypyrrolidin-1-yl)ethanone]"
5 to 20,0.5 to 5,"Cc1ccsc1-c1coc2c(O[C@H](C)c3c(Cl)ccc(F)c3Cl)c(N)ncc12 [Example 116, 7-[(R)-1-(2,6-Dichloro-3-fluorophenyl)ethoxy]-3-(3-methylthiophen-2-yl)furo[3,2-c]pyridin-6-ylamine]"
0.5 to 5,0.5 to 5,"C[C@@H](Oc1c(N)ncc2c(C3=CCN(C(=O)OC4CCCC4)CC3)coc12)c1c(Cl)ccc(F)c1Cl [Example 54, 4-{6-Amino-7-[(R)-1-(2,6-dichloro-3-fluorophenyl)-ethoxy]-furo[3,2-c]pyridin-3-yl}-3,6-dihydro-2H-pyridine-1-carboxylic acid cyclopentyl ester]"
5 to 20,0.5 to 5,"CCNC(=O)c1csc(-c2coc3c(O[C@H](C)c4c(Cl)ccc(F)c4Cl)c(N)ncc23)c1 [Example 329, 5-{6-Amino-7-[(R)-1-(2,6-dichloro-3-fluorophenyl)ethoxy]furo[3,2-c]pyridin-3-yl}-thiophene-3-carboxylic acid Ethylamide]"
0.5 to 5,< 0.5,"C[C@@H](Oc1c(N)ncc2c(-c3ccc(C(=O)N4CCN(C)CC4)cc3)coc12)c1c(Cl)ccc(F)c1Cl [Example 75, (4-{6-Amino-7-[(R)-1-(2,6-dichloro-3-fluorophenyl)ethoxy]-furo[3,2-c]pyridin-3-yl}phenyl)-(4-methylpiperazin-1-yl)methanone]"

SMILES,IC50 [1] [µM],IC50 [2] [µM]
"C[C@@H](Oc1c(N)ncc2c(C3=CC(N)CCC3)coc12)c1c(Cl)ccc(F)c1Cl (stereo partly drawn) [Example 146, 3-(3-Aminocyclohex-1-enyl)-7-[(R)-1-(2,6-dichloro-3-fluoro-phenyl)ethoxy]furo[3,2-c]pyridin-6-ylamine]",0.5 to 5,< 0.5
